The values that follow come from PMC7374170, “TRIB3-EGFR interaction promotes lung cancer progression and defines a therapeutic target” (Nature Communications, 2020).

Molecules are shown by their SMILES. Where two headings read alike, the source gives them in different places. Bridge positions count the residues as written; N and C are the ends. Square brackets hold non-standard residues; d marks the D form. Peptide text beside a SMILES is read from it. S5 = C=CCCC[C@](C)(N)C(=O)O

On the set-up of series [1]: species or system BALB/c nude mice. Particulars: mouse, in vivo. How it is done: twice a week for 4 weeks. […] Data are means ± SEM of 3 independent assays. […] CALM: Calmodulin. […] Lung cancer cells were isolated from PDX mice by using the […] One week after tumor inoculation, mice were […] or pemetrexed (100 mg kg-1, once a day). Tumor growth was monitored twice weekly with a caliper. Tumor volume (T ) was calculated using the formula: T =0.5×L×W 2. Mice survival V V […] signs of distress. […] Generation of Stable Cell Lines To establish cell populations stably expressing TRIB3-shRNA1/2, or the Control-shRNA, cells were transfected with TRIB3-shRNA1/2 or the Control-shRNA expressing plasmids. Stable transfectants were selected in medium containing hygromycin. […] (Supplementary Fig. 9a).

The nature of series [2]: In vitro plasma stability assay. The following applies: normalised to 100 at 0 min.
Protocol: The in vitro stability of the peptide was studied in rat plasma. The rat blood was collected by
retroorbital puncture and plasma was harvested after centrifugation (2,500×g, 5 min, 4℃) and
stored at -70℃. The reactions were initiated by adding the test peptide to 100 µl of preheated
plasma solution to yield a final concentration of 4 mM. The plasma solutions were incubated
for indicated times and added 200 µl acetonitrile to deproteinize the plasma. The samples were
subjected to vortex mixing for 1 min and centrifugation for 15 min (14,000 rpm, 4℃). Peptide
concentration in supernatants was determined by reversed-phase HPLC with electrospray
For series [3], the system named is bronchial epithelial cells (BEAS-2B).
Protocol: (§1) anti-HA Ab and blotted with indicated Abs. c, Cell viability of indicated cells treated with
(§2) Data are means ± SEM of 3 independent assays. d,
(§3) CCK-8 was conducted to detect the cell viability in cell proliferation and cytotoxicity assays
(§4) according to the manufacturer’s instructions (Dojindo Inc., Kumamoto, Japan). Cells were
(§5) plated in 96-well plates, starting at 3,000 cells/well. For cytotoxicity assay, the cells were
(§6) treated with indicated drugs, then a mixture of 10 µl CCK-8 solution and 90 µl complete culture
(§7) medium was added into each well. After 1 hr of incubation, the absorbance was measured at
Series [4] can be described thus: In vivo bio-distribution and clearance of FAM-labeled peptide (IVIS). Particulars: FAM-labeled peptides, bolus tail vein injection 2 mg kg-1, male athymic BALB/c nude mice. How it is done: detected by Exactive™ Plus Orbitrap (Thermo Fisher Scientific, USA).
In vitro plasma stability assay
The rat blood was collected by
The plasma solutions were incubated […]
ionization mass spectrometric detection. The values represent the mean of 3 independent assays.
In vivo bio-distribution and clearance of peptide
OH, USA). Data was analyzed by the built-in software.

The subject of series [5] is colonic mucosal epithelial cells (NCM460).
Protocol: as §1, §2, §3, §4, §5, §6, §7
The subject of series [6] is keratinocytes (HaCaT).
Protocol: as §1, §2, §3, §4, §5, §6, §7
Series [7] deals with cell surface EGFR in NCI-H157 cells. As to the kind of experiment: Cell surface EGFR by flow cytometry, NCI-H157. Format: cell-based, human. The following applies: TRIB3-overexpressing NCI-H157 cells, 10 µM monensin 4 hr, EGF 100 ng ml-1 1 hr. How it is done:
Supplementary Figure 2 Overexpression of TRIB3 promotes EGFR recycling. […]
a, NCI-H157 cells and NCI-H157 cells stably expressed TRIB3 were non-stimulated or EGF […]
(100 ng ml-1) stimulated for indicated times. Co-localization of EGFR with EEA1 was analyzed […]
with confocal microscopy, quantification of EGFR and EEA1 colocalization was shown as […]
Pearson’s coefﬁcient. Data are means ± SEM of 3 independent assays. b, Gating strategy to […]
determine surface EGFR level presented in figure 2d and supplementary figure 2c. c, […]
Quantitative analyses of cell surface EGFR in NCI-H157 cells stably expressed Empty-Vector […]
or TRIB3-HA expression plasmid. Cells were pre-incubated with DM SO or 10 µM monensin […]
cell surface was detected by flow cytometry analysis. […]
detected in NCI-H157 cells with or without TRIB3-HA stably ectopic expression (d); or in NCI- […]
localization of EGFR with Rab11 and LAMP1. Quantification of EGFR/Rab11 or […]
3 independent assays. Statistical significance between two groups was determined with two- […]
tailed Student’s t-test. Statistical significance among groups was determined by one-way ANOVA test. […]
Live cells were stained with Alexa-Fluro 488 anti-EGFR antibody (Santa Cruz, R-1, #sc-101 AF488, 1:100). Analysis was performed using a PARTEC EPICSXL (Germany) and data was analyzed using FCS Express 6. […]

Series [8] relates to A549 cells. As to the kind of experiment: CCK-8 cell viability / cytotoxicity, A549. It counts as cell-based. The following applies: Homo sapiens, read-out: IC50 of pemetrexed, A549, before sensitization.
Protocol: as §3, §4, §5, §6, §7
The test system of series [9] is NCI-H1975 cells. As to the kind of experiment: CCK-8 cell viability / cytotoxicity, NCI-H1975. Format: cell-based. The following applies: Homo sapiens.
Protocol: as §3, §4, §5, §6, §7

In the case of `CC[C@H](C)[C@@H]1NC(=O)[C@@](C)(NC(=O)[C@H](CC(C)C)NC(=O)[C@H](CC(C)C)NC(=O)[C@H](C)NC(=O)[C@H](CCC(N)=O)NC(=O)[C@@H](N)CC(N)=O)CCCC=CCCC[C@@](C)(C(=O)N[C@H](C(=O)N[C@@H](CCC(=O)O)C(=O)N[C@@H](Cc2ccccc2)C(=O)N[C@@H](CCCCN)C(=O)N[C@@H](CCCCN)C(=O)O)[C@@H](C)O)NC(=O)[C@H](CCCNC(=N)N)NC(=O)[C@H](CC(C)C)NC1=O` [SAH-JGZ4] (H-NQALL[S5]ILR[S5]TEFKK-OH; staple 6-10), the “EGFR and HER2 expression in the heart” value in series [1] was “did not cause reductions in”. Further, the peptide remaining in series [2] (450 min, replicate 1) turned out to be 113.749; in series [2] (450 min, replicate 2) it was 125.15; in [2] (450 min, replicate 3), 119.761; in [2] (540 min, replicate 1) it was 115.041; in series [2] (540 min, replicate 2) it was 121.067; in series [2] (540 min, replicate 3), 118.562. Besides, the peptide remaining in [2] (630 min, replicate 1) is on record as 106.23; in series [2] (630 min, replicate 2), 116.53; in series [2] (630 min, replicate 3), 116.365; in series [2] (720 min, replicate 1), 109.883; in series [2] (720 min, replicate 2), 113.113; in series [2] (720 min, replicate 3) it was 112.463. Moreover, in series [3], the “cell viability, BEAS-2B” value is recorded as “had no effect on the cell viability”. Besides, in [4], the “half-clearance rate in vivo compared with Pep2-JGZ” value was “slower half-clearance rate”. The “cell viability, NCM460” value in series [5] is reported as “had no effect on the cell viability”. Moreover, the “cell viability, HaCaT” value in series [6] is listed as “had no effect on the cell viability”.

Take `CC[C@@]1([C@@H]2O[C@@H]([C@H]3O[C@@](O)(CO)[C@H](C)C[C@@H]3C)C[C@@H]2C)CC[C@H]([C@]2(C)CC[C@]3(C[C@H](O)[C@@H](C)[C@@H]([C@@H](C)[C@@H](OC)[C@H](C)C(=O)O)O3)O2)O1` [monensin]: the EGFR membrane level entry in series [7] is “reduced the EGFR membrane level”.

As for `Nc1nc2[nH]cc(CCc3ccc(C(=O)N[C@@H](CCC(=O)O)C(=O)O)cc3)c2c(=O)[nH]1` [pemetrexed], the IC50 in series [8] stood at 245 nM; in [9] (NCI-H1975, read-out: IC50 of pemetrexed, H1975, sensitized by SAH-JGZ4), 793 nM; in series [9] (NCI-H1975, read-out: IC50 of pemetrexed, H1975, before sensitization), 3170 nM.
